The target in assay [1] is Casein kinase I isoform epsilon (Homo sapiens, UniProt P49674). Kind of assay: Selectivity interaction (KinomeScan (DiscoverX)) EUB0000655a CSNK1E. The conditions noted are these: at 10 µM.
The target of assay [2] is Tyrosine-protein kinase Blk (Homo sapiens) (UniProt P51451). Kind of assay: Selectivity interaction (Kinase screening (Upstate/Millipore)) EUB0000604a BLK.
Assay [3] addresses T1, Serine/threonine-protein kinase BRSK1 (Homo sapiens) (UniProt Q8TDC3).
T1 sequence (whole entry): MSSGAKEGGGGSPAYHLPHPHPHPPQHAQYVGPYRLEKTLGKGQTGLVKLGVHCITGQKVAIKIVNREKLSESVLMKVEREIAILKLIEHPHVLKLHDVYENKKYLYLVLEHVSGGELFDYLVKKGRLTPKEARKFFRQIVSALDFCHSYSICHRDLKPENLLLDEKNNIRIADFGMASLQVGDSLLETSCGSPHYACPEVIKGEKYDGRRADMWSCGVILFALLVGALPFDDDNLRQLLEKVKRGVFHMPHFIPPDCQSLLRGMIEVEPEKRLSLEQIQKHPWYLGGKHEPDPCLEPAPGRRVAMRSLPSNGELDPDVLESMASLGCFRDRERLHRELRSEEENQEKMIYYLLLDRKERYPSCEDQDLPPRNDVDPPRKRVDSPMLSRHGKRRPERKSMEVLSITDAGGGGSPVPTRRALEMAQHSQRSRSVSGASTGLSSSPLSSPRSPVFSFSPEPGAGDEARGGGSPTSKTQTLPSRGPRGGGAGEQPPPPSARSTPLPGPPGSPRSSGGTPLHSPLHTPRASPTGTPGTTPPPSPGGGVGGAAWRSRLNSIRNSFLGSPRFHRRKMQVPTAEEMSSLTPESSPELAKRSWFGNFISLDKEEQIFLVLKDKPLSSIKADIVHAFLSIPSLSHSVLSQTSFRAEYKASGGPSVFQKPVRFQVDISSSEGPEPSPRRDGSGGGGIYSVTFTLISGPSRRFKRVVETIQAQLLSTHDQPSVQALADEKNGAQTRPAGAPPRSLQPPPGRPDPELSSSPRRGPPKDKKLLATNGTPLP
Kind of assay: Selectivity interaction (Kinase screening (Nanosyn)) EUB0000604a BRSK1.

Assay [4] deals with T2, Serine/threonine-protein kinase NLK (Homo sapiens) (UniProt Q9UBE8).
T2 sequence (whole entry): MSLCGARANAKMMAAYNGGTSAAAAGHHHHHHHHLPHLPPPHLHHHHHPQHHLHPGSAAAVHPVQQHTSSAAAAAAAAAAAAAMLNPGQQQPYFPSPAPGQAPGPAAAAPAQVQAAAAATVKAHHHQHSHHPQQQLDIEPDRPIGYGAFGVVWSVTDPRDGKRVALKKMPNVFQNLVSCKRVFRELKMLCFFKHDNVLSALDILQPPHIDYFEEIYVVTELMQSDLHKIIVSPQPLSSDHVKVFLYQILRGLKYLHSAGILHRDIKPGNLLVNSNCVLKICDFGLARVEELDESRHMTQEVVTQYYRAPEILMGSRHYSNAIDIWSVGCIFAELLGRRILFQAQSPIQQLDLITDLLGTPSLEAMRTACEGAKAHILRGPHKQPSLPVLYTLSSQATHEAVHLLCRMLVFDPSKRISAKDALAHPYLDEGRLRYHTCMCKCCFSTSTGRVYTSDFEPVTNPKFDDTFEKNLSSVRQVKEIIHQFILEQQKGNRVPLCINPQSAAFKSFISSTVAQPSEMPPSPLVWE
Kind of assay: Selectivity interaction (KinomeScan (DiscoverX)) EUB0000695a NLK. The conditions noted are these: at 100 nM.

Assay [5] concerns the target Mitogen-activated protein kinase kinase kinase 8 (Homo sapiens, UniProt P41279). Kind of assay: Selectivity interaction (ProQinase) EUB0000171b MAP3K8.
In assay [6] the target is T3, Serine/threonine-protein kinase LATS1 (Homo sapiens) (UniProt O95835).
T3 sequence (whole entry): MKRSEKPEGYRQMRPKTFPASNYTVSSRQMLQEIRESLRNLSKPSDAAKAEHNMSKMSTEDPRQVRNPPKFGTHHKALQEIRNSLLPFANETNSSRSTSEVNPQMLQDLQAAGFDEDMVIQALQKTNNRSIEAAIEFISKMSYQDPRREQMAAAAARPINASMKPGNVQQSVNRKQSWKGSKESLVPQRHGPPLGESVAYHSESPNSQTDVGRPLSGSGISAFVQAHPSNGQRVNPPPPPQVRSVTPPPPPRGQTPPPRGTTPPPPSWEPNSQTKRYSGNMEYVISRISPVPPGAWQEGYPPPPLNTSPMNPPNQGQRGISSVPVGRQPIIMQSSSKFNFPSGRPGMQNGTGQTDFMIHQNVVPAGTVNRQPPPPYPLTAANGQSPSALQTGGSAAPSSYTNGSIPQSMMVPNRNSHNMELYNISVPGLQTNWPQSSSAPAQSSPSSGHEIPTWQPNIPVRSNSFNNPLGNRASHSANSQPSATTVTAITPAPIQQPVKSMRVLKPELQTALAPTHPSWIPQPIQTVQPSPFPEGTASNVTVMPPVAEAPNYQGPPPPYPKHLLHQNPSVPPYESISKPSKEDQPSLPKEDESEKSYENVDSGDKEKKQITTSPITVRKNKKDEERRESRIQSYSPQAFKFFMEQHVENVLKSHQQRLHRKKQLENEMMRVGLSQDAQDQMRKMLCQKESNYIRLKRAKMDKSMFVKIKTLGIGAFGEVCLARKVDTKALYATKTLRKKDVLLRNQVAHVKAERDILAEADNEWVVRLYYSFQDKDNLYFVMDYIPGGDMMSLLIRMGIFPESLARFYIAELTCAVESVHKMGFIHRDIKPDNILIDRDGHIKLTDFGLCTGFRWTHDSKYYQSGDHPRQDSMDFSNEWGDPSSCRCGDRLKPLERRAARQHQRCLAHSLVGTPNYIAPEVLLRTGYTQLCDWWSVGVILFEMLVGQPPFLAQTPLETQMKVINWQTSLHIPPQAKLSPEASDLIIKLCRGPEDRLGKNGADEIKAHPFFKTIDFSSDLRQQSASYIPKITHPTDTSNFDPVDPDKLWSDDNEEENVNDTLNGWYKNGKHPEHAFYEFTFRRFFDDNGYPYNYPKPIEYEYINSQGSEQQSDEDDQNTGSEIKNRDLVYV
Kind of assay: Selectivity interaction (KinomeScan (DiscoverX)) EUB0000045b LATS1.

The results in this text go back to ChEMBL document CHEMBL5465560, “Selectivity Literature for EUbOPEN Chemogenomic Library” (2024).

Mitogen-activated protein kinase kinase kinase 8, sequence (P41279 whole entry): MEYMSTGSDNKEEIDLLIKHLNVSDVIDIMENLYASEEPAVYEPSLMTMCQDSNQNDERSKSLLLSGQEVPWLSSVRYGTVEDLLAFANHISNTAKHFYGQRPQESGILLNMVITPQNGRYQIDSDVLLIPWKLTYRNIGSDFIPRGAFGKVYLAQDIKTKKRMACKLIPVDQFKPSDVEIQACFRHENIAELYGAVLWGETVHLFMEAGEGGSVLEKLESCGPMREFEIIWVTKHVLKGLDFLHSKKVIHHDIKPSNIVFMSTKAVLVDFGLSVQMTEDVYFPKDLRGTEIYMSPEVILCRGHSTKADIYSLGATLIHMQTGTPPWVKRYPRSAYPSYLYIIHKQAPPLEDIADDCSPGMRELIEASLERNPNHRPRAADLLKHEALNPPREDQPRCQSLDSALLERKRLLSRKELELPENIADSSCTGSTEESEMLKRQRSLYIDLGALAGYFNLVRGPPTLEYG
Tyrosine-protein kinase Blk (Homo sapiens), sequence (P51451 2-505 limits assumed): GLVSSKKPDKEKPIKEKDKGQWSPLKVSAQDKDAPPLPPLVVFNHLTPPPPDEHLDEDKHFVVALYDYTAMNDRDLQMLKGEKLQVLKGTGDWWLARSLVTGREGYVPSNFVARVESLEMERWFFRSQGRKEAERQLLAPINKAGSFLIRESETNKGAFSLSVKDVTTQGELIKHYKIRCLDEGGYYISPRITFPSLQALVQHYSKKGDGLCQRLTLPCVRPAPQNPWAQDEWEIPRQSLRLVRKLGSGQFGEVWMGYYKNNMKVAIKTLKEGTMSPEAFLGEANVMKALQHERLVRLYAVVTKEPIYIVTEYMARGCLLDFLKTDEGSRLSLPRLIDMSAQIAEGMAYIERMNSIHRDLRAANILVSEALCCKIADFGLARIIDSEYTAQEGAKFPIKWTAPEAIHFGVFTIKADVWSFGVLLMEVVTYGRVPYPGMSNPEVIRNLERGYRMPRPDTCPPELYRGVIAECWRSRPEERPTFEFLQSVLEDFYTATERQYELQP
Casein kinase I isoform epsilon, sequence (P49674 whole entry, looked up, canonical isoform): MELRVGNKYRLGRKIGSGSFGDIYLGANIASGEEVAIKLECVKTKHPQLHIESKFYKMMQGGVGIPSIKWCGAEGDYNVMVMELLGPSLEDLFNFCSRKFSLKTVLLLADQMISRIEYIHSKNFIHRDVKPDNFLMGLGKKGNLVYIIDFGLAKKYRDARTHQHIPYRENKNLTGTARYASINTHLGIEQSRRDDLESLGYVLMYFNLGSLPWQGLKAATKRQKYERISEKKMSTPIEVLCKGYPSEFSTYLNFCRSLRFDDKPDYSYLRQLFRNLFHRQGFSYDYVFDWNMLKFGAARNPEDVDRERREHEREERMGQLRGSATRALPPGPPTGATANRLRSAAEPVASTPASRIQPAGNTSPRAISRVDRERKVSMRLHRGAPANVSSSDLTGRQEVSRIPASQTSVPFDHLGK

Regarding `CN(C)CCOc1ccc(-c2nc(-c3ccncc3)c(-c3ccc4c(c3)CC/C4=N\O)[nH]2)cc1`, in assay [1], the % of control was found to be 14%.

Regarding `Cc1cnc(Nc2ccc(F)cc2Cl)nc1-c1c[nH]c(C(=O)N[C@H](CO)c2cccc(Cl)c2)c1`, the % of inhibition in assay [2] was 7%; in assay [3], 0%.

As to `Cc1cc(F)c(C(=O)Nc2cccc(-c3nncn3C(C)C)n2)cc1-n1cnc(C2CC2)c1`, in assay [4], the % of control turned out to be 96%.

Take `C=CC(=O)Nc1cccc(C(=O)Nc2ccc(Nc3cc(-c4[nH]c(SC)nc4C)ccn3)cc2)c1`: the % of control was 95% in assay [5] (at 1 µM) and 103% in assay [5] (at 5 µM).

`C=CC(=O)Nc1cc(-n2c(=O)ccc3cnc4ccc(-c5ccc(NS(C)(=O)=O)cc5)cc4c32)ccc1C`: the % of control in assay [6] (at 1 µM) and in assay [6] (at 10 µM) was 100% throughout.
